In patent US20190350890A1, “COMPOSITION FOR PREVENTING OR TREATING HEPATITIS CONTAINING MONOACETYL DIACYLGLYCEROL COMPOUND” (ENZYCHEM LIFESCIENCES CORPORATION, priority 2016, published 2019):

How the values were obtained:
[1] = system: STAT6; assay: Western blot assay, IL-4-induced STAT6 phosphorylation in Hep3B cells; assay type: cell-based; details: for phosphorylation of STAT6, comparison of PLAG and PLG: Hep3B cells, anti-phospho-STAT6 Western blot
Experimental: (§1) Hep3B cells were plated in 12 well plates (2.5×10^5 cells/well) and treated with PLAG at various concentrations (0.1, 1, 10, 100 ug/mL), and after 2 hours, activated with IL-4 for 1 hour. Whole protein extracts were immunoblotted with phospho-STAT6, STAT6, phospho-JAK1 and phosphor-PKCξ/λ Abs (cell signaling).

[2] = system: hepatitis induced by concanavalin A; assay: Plasma cytokine analysis (ELISA) in Con A-induced hepatitis mice; assay type: in vivo, Balb/c mice; details: Con A 20 mg/kg BW i.v., PLAG oral 100 mg/kg BW, blood 18 hours after Con A
Experimental: (§2) In order to confirm the preventive and therapeutic effects of hepatitis by 1-palmitoyl-2-linoleoyl-3-acetylglycerol (EC-18 or PLAG), the experiment was performed using an attenuation model of hepatitis induced by concanavalin A (hereinafter, referred to as ConA). As an experimental model, 10-week-old Balb/c mice (Koatech, Korea) were maintained under specific pathogen free (SPF) environment and used, and PLAG and PLG (ENZYCHEM Lifesciences, Korea) were prepared before or after in vivo or in vitro treatment. In addition, Hep3B, HepG2, EL-4 and HL-60 cell lines (American Type Culture Collection, ATCC) were incubated under 5% CO2 and a temperature of 37° C. The values in the comparison between groups performed in vivo were analyzed using one analysis method of the analysis of variance (ANOVA), and the values in the comparison of two experimental groups performed in vitro were analyzed using independent student's t test. Statistical significance was assumed to be p<0.05.
(§3) Mice were randomly divided into three groups: control group, Con A-treated group, and PLAG-pretreated group. The Con A and PLAG were all dissolved in PBS (phosphate buffer saline) and used. PBS or PLAG was orally administered to the mice, and after 2 hours, 20 mg/kg BW of Con A was intravenously injected into each of the Con A-treated group and the PLAG-pretreated group. Thereafter, PLAG was orally administered to mice at a dose of 100 mg/kg BW. Here, BW means body weight.
(§4) Blood samples were obtained from cardiac punctures 18 hours after administration of Con A in the mice of Example and centrifuged at 3,000 rpm for 10 minutes. For the measurement of cytokines in liver tissue ligate liquids, the animals were sacrificed and the liver was washed with PBS. The liver was homogenized and filtered using a 70 μm mesh cell strainer (BD Falcon cell strainer, BD Biosciences, Bedford, Mass.) in PBS. The supernatant was also collected by centrifugation at a rate of 2,000 rpm for 5 minutes. The lower cell pellet was resuspended in PBS and analyzed for complete blood cell count (CBC). Plasma samples and supernatants of liver lysate were maintained at minus 20° C. until cytokines were measured. The concentrations of IL-6, IL-10, IL-4, MIP-2 and IFNγ were detected using Set ELISA.

[3] = system: hepatitis induced by concanavalin A; assay: Liver tissue cytokine analysis (ELISA, RT-PCR) in Con A-induced hepatitis mice; assay type: in vivo, Balb/c mice
Experimental: as §2, §3, §4
(§5) Total RNA was isolated from the liver homogenate with TRIzol reagent (Incitrogen, Carlsbad, Calif.). HL-60 cells were plated in 12-well plates (1×10^6/well) and treated in the same manner as in Experimental Example 4. cDNA was synthesized from total cellular RNA using M-MLV reverse transcriptase and oligo-dT (Promega, Madison, Wis.).
(§6) The amount of cDNA amplification of the reaction samples was confirmed by 2% agarose gel (Roche Applied Science, Salt Lake City, Utah) electrophoresis.

[4] = system: hepatitis induced by concanavalin A; assay: Hematological analysis (CBC) of whole blood and liver samples; assay type: in vivo, Balb/c mice; details: PLAG additionally administered
Experimental: as §2, with “Statistical significance was assumed to be p<0.05.” left out
Whole blood and liver samples were collected from the mice of Example 1 18 hours after administration of Con A. The cleaved liver collected from the mouse was homogenized as described in Experimental Example 1. Complete blood count (CBC) analysis included whole white blood cell quantification, part of neutrophils and lymphocytes of whole white blood cells, and hematology analysis was performed using Mindray BC 5300 (Shenzhen Mindray Bio-medical Electronics, China).

[5] = system: hepatitis induced by concanavalin A; assay: Histological analysis of liver (hematoxylin-eosin, anti-neutrophil antibody staining); assay type: in vivo, Balb/c mice
Experimental: as §2, §3
The site of liver was collected from a mouse 8 hours after administration of Con A to the mouse of Example 1. The site of liver was fixed in 10% neutral buffered formalin, embedded in paraffin and cut to a thickness of 5 um. After removing the paraffin and rehydration, the flakes were stained with hematoxylin and eosin. In addition, for identification of neutrophils, the site of liver was stained with anti-mouse neutrophil antibody. All samples were evaluated histologically under a Leica (Leica, Wetzlar, Germany) optical microscope, and digital images were taken at ×200 magnification.

[6] = system: Hep3B cells; assay: WST assay, cytotoxicity in Hep3B cells; assay type: cell-based; details: 24 hours of incubation, PLAG 1,000 ug/mL or greater
Experimental: (§7) FIG. 7 is a graph showing the results of WST assay of […] depending on the dose of PLAG when the composition of the present invention was administered, and FIG. 8 is a graph showing the inhibitory effect of IL-4-induced STAT6 activity and related signaling mechanism depending on the dose of PLAG when the composition of the present invention was administered. […] HepG2 and Hep3B were used as liver cells, and HL-60 was used as neutrophil cells. Cytotoxicity of EC-18 in liver cells and leukocytes was confirmed by WST assay. Survival of Hep3B and HL-60 cells was not affected during 24 hours of incubation with PLAG each having a concentration of 1,000 ug/mL or greater (see FIG. 7). Based on the results of the WST assay, 100, 10, and 1 ug/mL of PLAG were used for the cells. The activities of PKC-ξ/λ, JAK1 and STAT6 played an important role in ConA-induced hepatitis, and these kinases were increased by IL-4. […] Therefore, it can be seen that PLAG can effectively control IL-4-induced hepatitis by alleviating PKC-ξ/λ activity.

[7] = system: HL-60 cells; assay: WST assay, cytotoxicity in HL-60 cells; assay type: cell-based; details: 24 hours of incubation, PLAG 1,000 ug/mL or greater
Experimental: as §7

[8] = system: PKC-ξ/λ; assay: Western blot assay, IL-4-induced PKC phosphorylation; assay type: cell-based; details: dose-dependent; 0.1, 1, 10, 100 ug/mL, 2 hours before IL-4 for 1 hour
Experimental: as §1
(§8) HL-60 cells were plated in 12-well plates (1×10^6/well) and treated as described above. Total protein extracts were immunoblotted with phospho-PKC homologous proteins (δ, θ, ξ/λ, α/β) (Cell Signaling) and GAPDH Abs (Santa Cruz Biotechnology Inc., CA). Detection was performed using Immobilon Western Chemiluminescent HRP Substrate (Millipore Corporation, Billerica, Mass.).

[9] = system: PKCδ; assay: Western blot assay, phospho-PKC isotypes in HL-60 cells: PKCδ; assay type: cell-based; details: IL-4 stimulation
Experimental: as §8

[10] = system: PKCθ; assay: Western blot assay, phospho-PKC isotypes in HL-60 cells: PKCθ; assay type: cell-based; details: IL-4 stimulation
Experimental: as §8

[11] = system: PKCα/β; assay: Western blot assay, phospho-PKC isotypes in HL-60 cells: PKCα/β; assay type: cell-based; details: IL-4 stimulation
Experimental: as §8

[12] = system: STAT6; assay: Luciferase reporter gene analysis, STAT6 transcriptional activity in HepG2 and Hep3B cells; assay type: cell-based; details: 10 and 100 ug/ml of PLAG; 10 ng/ml IL-4 for 6 hours
Experimental: HepG2 and Hep3B cells were transfected into reporter luciferase plasmids containing four pairs of STAT6 binding sites (p4xSTAT6-Luc2P; Addgene, Cambridge, Mass.), and the reporter vector was transfected into the Attractene reagent and cell line. For the activity of STAT6 reporter vectors, 10 ng/ml of IL-4 was treated with cells for 6 hours, and the luciferase activity was measured by a luminometer using a luciferase assay system. The luciferase activity of each sample was normalized to those corresponding to the PLAG transduced samples.

[13] = system: HL-60 cells; assay: RT-PCR analysis of IL-8 and VCAM-1 expression in IL-4-stimulated HL-60 cells; assay type: cell-based, human; details: HL-60 cells stimulated by IL-4, RT-PCR, dose-dependent
Experimental: as §5, §6

[14] = system: HL-60 cells; assay: Neutrophil adsorption analysis on fibronectin; assay type: cell-based; details: 100, 10, and 1 ug/mL of PLAG; 10 ng/ml of IL-4; WST-1 assay and cell number
Excerpt: In order to determine the effect of PLAG on neutrophil adsorption of fibronectin, 24-well tissue culture plates were coated with fibronectin as in previous studies (Wang Y H, Wang W Y, Liao J F, Chen C F, Hou Y C, Liou K T, Chou Y C, et al. Prevention of macrophage adhesion molecule-1 (Mac-1)-dependent neutrophil firm adhesion by taxifolin through impairment of protein kinase-dependent NADPH oxidase activation and antagonism of G protein-mediated calcium influx. Biochem Pharmacol 2004; 67:2251-2262.). The plates were incubated with 25 ug/ml of fibronectin at 37° C. for 2 hours. The unbounded protein was removed by washing, neutrophils were pre-treated with PLAG 2 hours before the experiment, and neutrophil activity was performed with IL-4 for 4 hours. Non-adsorbed neutrophils were eluted by aspiration and washed twice with PBS. Attached neutrophils were determined by calculating the number of cells at the bottom of each well using a homocytometer. The remaining adsorbed cells were stored in an incubator for 18 hours, at which time the cells were exposed to WST-1 reagent (Roche Applied Science) for spectrometric evaluation.

[15] = ConA-administered mice, PLAG further administered, vs ConA group
[16] = RT-PCR, ConA-induced liver tissue

Structure (SMILES): CCCCC/C=C\C/C=C\CCCCCCCC(=O)OC(CO)COC(=O)CCCCCCCCCCCCCCC (stereo not drawn) [PLG, reference compound]
- phosphorylation of STAT6, comparison of PLAG and PLG [1]: not altered

Structure (SMILES): CCCCC/C=C\C/C=C\CCCCCCCC(=O)OC(COC(C)=O)COC(=O)CCCCCCCCCCCCCCC (racemic) [PLAG, 1-palmitoyl-2-linoleoyl-3-acetyl-rac-glycerol]
- IL-4 in mouse plasma ([2]; vs Con A group): decreased
- IL-6 in mouse plasma ([2]; vs Con A group): decreased
- IL-10 in mouse plasma ([2]; vs Con A group): decreased
- MIP-2 in mouse plasma ([2]; vs Con A group): decreased
- concentration of IFNγ in plasma ([2]; vs mice not treated with PLAG): not significantly reduced
- expression of IL-4 (protein and mRNA) in liver tissue [3, 15]: significantly reduced
- expression of MIP-2 (protein and mRNA) in liver tissue [3, 15]: significantly reduced
- expression of CXCR4 mRNA in liver tissue [3, 16]: down-regulates
- expression of adsorbed molecules ICAM-1 and VCAM in liver tissue [3, 16]: does not affect
- circulating neutrophils in blood ([4]; CBC 18 hours after Con A): significantly increased
- number of neutrophils present in the liver ([4]; CBC of liver homogenate 18 hours after Con A): significantly reduced
- neutrophils in liver enhanced by stimulation with ConA ([5]; anti-neutrophil antibody staining, liver 8 hours after Con A): effectively alleviated
- pathological changes of liver (hepatocyte damage, neutrophil infiltration, necrotic foci) ([5]; hematoxylin-eosin staining, PLAG 100 mg/kg, 8 hours after ConA i.v.): markedly reduced
- liver cell damage ([5]; liver 8 hours after Con A, immunohistological staining, vs ConA-treated liver tissue): hardly damaged
- survival of Hep3B cells [6]: not affected
- survival of HL-60 cells [7]: not affected
- phosphorylation of STAT6, comparison of PLAG and PLG [1]: significantly reduced
- phosphorylation of STAT6 induced by IL-4 ([1]; dose-dependent, 0.1, 1, 10, 100 ug/mL, 2 hours before IL-4 for 1 hour): considerably alleviated
- phosphorylation of PKC induced by IL-4 [8]: considerably alleviated
- relaxation of the activity of PKCδ [9]: affects the relaxation
- relaxation of the activity of PKCθ [10]: affects the relaxation
- relaxation of PKCα/β activity [11]: did not affect
- STAT6 transcriptional activity [12]: effectively prevented
- expression of IL-8 [13]: effectively suppressed
- expression of VCAM-1 [13]: effectively suppressed
- adsorption of HL-60 to coated fibronectin [14]: significantly reduced
